Legend:
[1] = test system: S. aureus (MRSA SAP0017) biofilms; assay: Static microtitre plate antibiofilm screen (crystal violet); format: cell-based, Staphylococcus aureus; conditions: SPOT-synthesized peptides (60–70% purity), ~6.25 μM, TSB with 1% glucose, 24 h 37 °C, crystal violet A595, mean of three biological replicates; Fig. 1b matrix
Description: The SPOT-synthesized peptides were evaluated for their antibiofilm activity in vitro as described previously. Briefly, 5 μl of SPOT-peptide stock solution or a corresponding serial dilution was placed in a 96-well polypropylene round bottom plate (Corning Inc. Corning, NY) and 95 μl of a 1/100 dilution of an overnight culture of MRSA SAP0017 in TSB supplemented with 1% glucose was added to each well. The plates were incubated overnight at 37 °C to allow for bacterial growth and biofilm maturation. After 24 hours, the media containing planktonic bacteria was rinsed from each well with distilled water and the remaining biomass was stained with 0.1% crystal violet. The unbound dye was rinsed away and the biofilm bound dye was suspended in 70% ethanol and the absorbance at 595 nm was recorded on a plate reader. Percent biofilm inhibition was calculated by comparison to the amount of crystal violet stain in the untreated controls (defined as 100%) and the sterility control wells (defined as 0%). Results from three separate biological replicates were averaged and outliers were identified using the modified Thompson Tau test and removed from the analysis. The antibiofilm activity of all SPOT-derived peptides was assessed at multiple concentrations (up to five 2-fold dilutions from the stock solution) and the peptide concentration yielding the largest difference in percent inhibition of biofilm growth was used in subsequent analysis.

[2] = test system: planktonic S. aureus MRSA (SAP0017); assay: MIC determination, broth microdilution; format: cell-based, Staphylococcus aureus; conditions: broth microdilution, ~5 × 10^5 CFU/ml, 37 °C overnight, visual read, mean of three biological replicates
Description: The MIC of the synthesized peptides was determined in both Mueller Hinton Broth (MHB) and Tryptic Soy Broth (TSB) supplemented with 1% glucose, using the broth microdilution method[21] with slight modifications. Briefly, 10 μl of a 10× concentrated peptide stock solution, vancomycin antibiotic, or vehicle control (water) was placed in the bottom of a well in a 96-well polypropylene round bottom plate (Corning Inc. Corning, NY). A bacterial suspension of S. aureus MRSA (SAP0017, clinical isolate kindly provided by Dr. Tony Chow, Vancouver General Hospital) was prepared from an overnight culture to a final cell density of ~5 × 10^5 CFU/ml and 90 μl of this was added to each well.

[3] = test system: MRSA SAP0017 biofilms grown in flow cells; assay: Eradication of pre-formed biofilms in flow cells; format: cell-based, Staphylococcus aureus; conditions: BM2 media, SYTO-9/propidium iodide, confocal microscopy
Description: Bacterial biofilms were grown in BM2 media (62 mM potassium phosphate buffer, pH 7, 7 mM (NH4)2SO4, 2 mM MgSO4, 10 μM FeSO4 and 0.4% (wt/vol) glucose) for 48 hours followed by treatment with peptide (2 or 0.125 µM) for an additional 24 hours. The samples were stained with SYTO-9 and propidium iodide fluorescent dyes to image total and dead cells, respectively. Flow-cell images were acquired on an Olympus FluoView FV1000 confocal laser scanning microscope (Olympus Corp. Tokyo, Japan) and were analyzed with the Fiji software package.

[4] = test system: peripheral blood mononuclear cells (PBMCs); assay: Cytotoxicity, LDH release assay; format: cell-based, human; conditions: peptide concentrations as high as 40 µM
Description: The cytotoxicity and immunomodulatory activity of both 1018 and 3002 was assessed as described previously. Briefly, peripheral blood mononuclear cells (PBMCs) were collected from healthy volunteers in accordance with the University of British Columbia ethics guidelines. PBMCs were plated in Costar 96-well flat bottom tissue culture treated plates at a final density of 1 × 10^6 cells/ml in RPMI media supplemented with 10% fetal bovine serum. […] Cytotoxicity was assessed using the Cytotoxicity Detection Kit (Roche Diagnostics, Basel, Switzerland) which measures lactate dehydrogenase activity released from damaged cells. Immune modulation was characterized by measuring the production of MCP-1 chemokine by induced by peptide alone as well as the suppression of interleukin (IL)-1β from PBMCs stimulated with 10 ng/ml Pseudomonas aeruginosa PAO1 lipopolysaccharide. Levels of MCP-1 and IL-1β were quantified by enzyme linked immunosorbent assays (ELISAs) using kits from eBioscience Inc. (San Diego, CA).

MRSA USA300 LAC = assay: Murine cutaneous abscess model; format: in vivo, CD-1 mice; conditions: 14 mg/kg
Description: The in vivo activity of the identified antibiofilm peptide 3002 and the parental compound 1018 was evaluated using a recently described murine abscess model of chronic MRSA infections. All animal experiments were performed in accordance with The Canadian Council on Animal Care (CCAC) guidelines and were approved by the University of British Columbia Animal Care Committee. Briefly, the fur on the backs of 6-week old female CD-1 mice (Charles River Laboratories, Wilmington, MA) was removed by shaving and subsequent treatment with depilatory cream. MRSA USA300 LAC was grown to an optical density at 600 nm of 1 in tryptic soy broth (TSB) at which point cells were washed twice with sterile PBS and then suspended in PBS to a final cell density of 5 × 10^7 CFU/50 μL. Mice were infected with 50 μL of bacteria subcutaneously on the right flank of the back and 1 hour later, given saline (for controls) or treated with 14 mg/kg peptide (1018 or 3002) via intra-abscess injection. Mice were monitored daily and their weight as well as abscess lesion sizes (measured using a caliper) were recorded every 24 hrs. Visible dermonecrosis or white lesions (filled with pus) were considered as part of the abscess lesion while swelling/inflammation was disregarded in the abscess size measurements. Three days post-infection, abscesses were excised and homogenized using a Bead Ruptor 4 tissue homogenizer (OMNI International, Kennesaw GA) for 5 minutes and serially plated for viable CFU quantification.

[5] = test system: biofilms formed by P. aeruginosa, Escherichia coli and MRSA; conditions: combination with various antimicrobial agents; cited from earlier work
Description: For example, when peptide 1018 was used in combination with various antimicrobial agents, it decreased the amount of drug required to treat biofilms formed by P. aeruginosa, Escherichia coli and MRSA (among others) by up to 64-fold[30]. […] It is likely that such synergistic effects would be conserved with the latest pept ...

Question: What does the source list for “VRLIVAVRIWRR-NH2 [compound 1018, synthetic immunomodulatory cationic peptide, 12-residue derivative of bovine bactenecin; parent template, reference compound]”?
Answer: percent residual biofilm after treatment with peptide [1]: 31%; MIC, MHB ([2]; Mueller Hinton Broth): 4 µM; MIC, TSB with 1% Glucose ([2]; Tryptic Soy Broth with 1% glucose): >64 µM; eradication of 2-day old pre-formed MRSA biofilms ([3]; 0.125 μM peptide for 24 h): virtually identical to untreated controls; eradication of 2-day old pre-formed MRSA biofilms ([3]; 2 µM peptide for 24 h): effectively eradicated; cytotoxicity (LDH release) [4]: less than 15%; reduction of abscess lesion size compared to untreated controls (MRSA USA300 LAC; single intra-abscess injection 1 h after infection, 3 days): 2.4 fold; effect on bacterial load recovered from the abscesses (MRSA USA300 LAC; single intra-abscess injection, CFU three days post-infection): neither peptide had any effect; decrease in amount of drug required to treat biofilms in combination with peptide [5]: up to 64 fold

— article PMC5789975, “Computer-aided Discovery of Peptides that Specifically Attack Bacterial Biofilms” (Scientific Reports, 2018)
